pIC50: −log10 of the molar value.
target: ClpP Enzyme; assay type: biochemical; conditions: pH 8

Compound | pIC50
O=[N+]([O-])C(=C1Nc2ccccc2N1)C(Cl)=C(Cl)Cl [(I)] | 4.64
Clc1nc2ccccc2nc1N1CC1 [(II)] | 4.72
COc1ccc(/C=C(\C#N)c2nnc(/N=C/N(C)C)s2)cc1 [(III)] | 4.60
